Reference: patent US11081236B2, “Diagnostic and therapeutic methods for the treatment of breast cancer” (GENENTECH, INC., priority 2018, dated 2021)

Tested on: panel of 14 ER+/HER2− breast cancer cell lines
Assay: 8-day in vitro viability assay, GR (Growth Rate) method
Assay type: cell-based
Conditions: 300 nM
Description: The relationship between ER pathway activity and the anti-proliferative effect of the ER antagonist fulvestrant was explored in a panel of 14 ER+/HER2− breast cancer cell lines. RNA-sequencing data was leveraged to determine the E2-induced score, determined by expression of a set of E2-induced genes (as described above), of a series of ER+/HER2− breast cancer cell lines grown under standard culture conditions, in the presence of estrogen. The effect of ER inhibition by 300 nM fulvestrant on cellular proliferation was determined in an 8-day in vitro viability assay using the GR (Growth Rate) method described by Hafner et al. (Nat Methods 13:6, 2016). The E2-induced score was then plotted against the effect of fulvestrant on cellular growth rate.

SMILES: C[C@]12CC[C@@H]3c4ccc(O)cc4C[C@@H](CCCCCCCCC[S+]([O-])CCCC(F)(F)C(F)(F)F)[C@H]3[C@@H]1CC[C@@H]2O (some centres unmarked) [Fulvestrant, fulvestrant]
- impact on growth rate (cell lines exhibiting higher E2-induced scores): considerably greater impact
- impact on growth rate (cell lines with E2-induced scores in the lowest 25th percentile (ZR-75-1, MDA-MB-415, MDA-MB-175-VII, KPL-1)): little impact
